In brackets after ≈: the same amount, converted by molar mass.
Columns and labels:
Format in all cases: functional
[1] = tested on: Escherichia coli; assay: Antimicrobial activity against Escherichia coli clinical isolates
[2] = tested on: Klebsiella pneumoniae; assay: Antimicrobial activity against Klebsiella pneumoniae clinical isolates
[3] = tested on: Klebsiella oxytoca; assay: Antimicrobial activity against Klebsiella oxytoca clinical isolates
[4] = tested on: Citrobacter freundii; assay: Antimicrobial activity against Citrobacter freundii clinical isolates
[5] = tested on: Citrobacter koseri; assay: Antimicrobial activity against Citrobacter koseri clinical isolates
[6] = tested on: Enterobacter cloacae; assay: Antimicrobial activity against Enterobacter cloacae clinical isolates
[7] = tested on: Klebsiella aerogenes; assay: Antimicrobial activity against Enterobacter aerogenes clinical isolates
[8] = tested on: Proteus mirabilis; assay: Antimicrobial activity against Proteus mirabilis clinical isolates
[9] = tested on: Morganella morganii; assay: Antimicrobial activity against Morganella morganii clinical isolates
[10] = tested on: Serratia marcescens; assay: Antimicrobial activity against Serratia marcescens clinical isolates
[11] = tested on: Pseudomonas aeruginosa; assay: Antimicrobial activity against Pseudomonas aeruginosa clinical isolates
[12] = tested on: Acinetobacter sp.; assay: Antimicrobial activity against Acinetobacter sp. clinical isolates
[13] = tested on: Acinetobacter baumannii; assay: Antimicrobial activity against Acinetobacter baumannii clinical isolates
[14] = tested on: Burkholderia cepacia; assay: Antimicrobial activity against Burkholderia cepacia clinical isolates
[15] = tested on: Stenotrophomonas maltophilia; assay: Antimicrobial activity against Stenotrophomonas maltophilia clinical isolates
[16] = tested on: Haemophilus sp.; assay: Antimicrobial activity against Haemophilus sp. clinical isolates
[17] = tested on: Enterococcus sp.; assay: Antimicrobial activity against Enterococcus sp. clinical isolates
[18] = tested on: Enterococcus faecalis; assay: Antimicrobial activity against Enterococcus faecalis clinical isolates
[19] = tested on: Staphylococcus sp.; assay: Antimicrobial activity against Staphylococcus sp. clinical isolates
[20] = tested on: Staphylococcus aureus; assay: Antimicrobial activity against Staphylococcus aureus clinical isolates
[21] = tested on: Staphylococcus aureus; assay: Antimicrobial activity against oxacillin-susceptible Staphylococcus aureus clinical isolates
[22] = tested on: Staphylococcus sp.; assay: Antimicrobial activity against Coagulase-negative Staphylococcus sp. clinical isolates
[23] = tested on: Staphylococcus sp.; assay: Antimicrobial activity against Coagulase-negative oxacillin-susceptible Staphylococcus sp. clinical isolates
[24] = tested on: Streptococcus pneumoniae; assay: Antimicrobial activity against Streptococcus pneumoniae clinical isolates
[25] = tested on: Streptococcus sp.; assay: Antimicrobial activity against Streptococcus sp. clinical isolates
[26] = tested on: Enterococcus faecalis; assay: Antimicrobial activity against Enterococcus faecalis clinical isolate obtained from critically ill patients
[27] = tested on: Streptococcus pneumoniae; assay: Antimicrobial activity against Streptococcus pneumoniae clinical isolate obtained from critically ill patients
[28] = tested on: Staphylococcus aureus; assay: Antimicrobial activity against methicillin-susceptible Staphylococcus aureus clinical isolate obtained from critically ill patients
[29] = tested on: Staphylococcus aureus; assay: Antimicrobial activity against methicillin-resistant Staphylococcus aureus clinical isolate obtained from critically ill patients
[30] = tested on: Acinetobacter sp.; assay: Antimicrobial activity against Acinetobacter sp. clinical isolate obtained from critically ill patients
[31] = tested on: Enterobacter cloacae; assay: Antimicrobial activity against Enterobacter cloacae clinical isolate obtained from critically ill patients
[32] = tested on: Escherichia coli; assay: Antimicrobial activity against Escherichia coli clinical isolate obtained from critically ill patients
[33] = tested on: Klebsiella pneumoniae; assay: Antimicrobial activity against Klebsiella pneumoniae clinical isolate obtained from critically ill patients
[34] = tested on: Haemophilus influenzae; assay: Antimicrobial activity against Haemophilus influenzae clinical isolate obtained from critically ill patients
[35] = tested on: Proteus mirabilis; assay: Antimicrobial activity against Proteus mirabilis clinical isolate obtained from critically ill patients
[36] = tested on: Pseudomonas aeruginosa; assay: Antimicrobial activity against Pseudomonas aeruginosa clinical isolate obtained from critically ill patients
[37] = tested on: Enterobacteriaceae; assay: Antimicrobial activity against Enterobacteriaceae clinical isolates
[38] = T>MIC in bacilli infected patients with moderate renal impairment at 250 mg administered as 1 hr infusion every 8 hrs
[39] = T>MIC in bacilli infected patients with severe renal impairment at 250 mg administered as 4 hrs infusion every 12 hrs
[40] = T>MIC in bacilli infected patients with renal impairment at 500 mg administered as 1 hr infusion every 8 hrs

In the case of C[C@@H](O)[C@H]1C(=O)N2C(C(=O)O)=C(S[C@@H]3CN[C@H](CNS(N)(=O)=O)C3)[C@H](C)[C@H]12 [DORIPENEM], the MIC [1] is reported as ≤ 0.03 µg/mL, the MIC50 [1] is reported as ≤ 0.03 µg/mL and the MIC90 [1] is reported as 0.03 µg/mL (≈ 0.0713 µM). It also gave an MIC50 [2] of 0.06 µg/mL (≈ 0.143 µM), an MIC90 [2] of 0.12 µg/mL (≈ 0.285 µM) and an MIC50 [3] of 0.06 µg/mL (≈ 0.143 µM). For the same compound, the MIC90 [3] was 0.06 µg/mL (≈ 0.143 µM), the MIC [4] was ≤ 0.03 µg/mL and the MIC50 [4] was ≤ 0.03 µg/mL. For the same compound, the MIC90 [4] was 0.06 µg/mL (≈ 0.143 µM), the MIC [5] was ≤ 0.03 µg/mL and the MIC50 [5] was ≤ 0.03 µg/mL. The MIC90 [5] was 0.06 µg/mL (≈ 0.143 µM), the MIC50 [6] was 0.06 µg/mL (≈ 0.143 µM) and the MIC90 [6] was 0.5 µg/mL (≈ 1.19 µM). The MIC50 [7] was 0.06 µg/mL (≈ 0.143 µM), the MIC90 [7] was 0.12 µg/mL (≈ 0.285 µM) and the MIC50 [8] was 0.25 µg/mL (≈ 0.595 µM). For the same compound, the MIC90 [8] was 0.5 µg/mL (≈ 1.19 µM), the MIC50 [9] was 0.25 µg/mL (≈ 0.595 µM) and the MIC90 [9] was 1 µg/mL (≈ 2.38 µM). For the same compound, the MIC50 [10] was 0.12 µg/mL (≈ 0.285 µM), the MIC90 [10] was 0.25 µg/mL (≈ 0.595 µM) and the MIC50 [11] was 0.5 µg/mL (≈ 1.19 µM). The MIC90 [11] was 4 µg/mL (≈ 9.51 µM), the MIC50 [12] was 0.5 µg/mL (≈ 1.19 µM) and the MIC90 [12] was 32 µg/mL (≈ 76.1 µM). For the same compound, the MIC50 [13] was 1 µg/mL (≈ 2.38 µM), the MIC90 [13] was 32 µg/mL (≈ 76.1 µM) and the MIC [14] was 2 µg/mL (≈ 4.76 µM). For the same compound, the MIC50 [15] was 64 µg/mL (≈ 152 µM), the MIC90 [15] was > 128 µg/mL and the MIC50 [16] was 0.06 µg/mL (≈ 0.143 µM). It also gave an MIC90 [16] of 0.25 µg/mL (≈ 0.595 µM), an MIC50 [17] of 4 µg/mL (≈ 9.51 µM) and an MIC90 [17] of 32 µg/mL (≈ 76.1 µM). For the same compound, the MIC50 [18] was 4 µg/mL (≈ 9.51 µM), the MIC90 [18] was 4 µg/mL (≈ 9.51 µM) and the MIC50 [19] was ≤ 0.03 µg/mL. For the same compound, the MIC90 [19] was 16 µg/mL (≈ 38 µM), the MIC50 [20] was ≤ 0.03 µg/mL and the MIC90 [20] was 16 µg/mL (≈ 38 µM). For the same compound, the MIC [21] was ≤ 0.03 µg/mL, the MIC50 [21] was ≤ 0.03 µg/mL and the MIC90 [21] was 0.06 µg/mL (≈ 0.143 µM). For the same compound, the MIC50 [22] was 0.06 µg/mL (≈ 0.143 µM), the MIC90 [22] was 16 µg/mL (≈ 38 µM) and the MIC [23] was ≤ 0.03 µg/mL. For the same compound, the MIC50 [23] was ≤ 0.03 µg/mL, the MIC90 [23] was 0.25 µg/mL (≈ 0.595 µM) and the MIC [24] was ≤ 0.03 µg/mL. The MIC50 [24] was ≤ 0.03 µg/mL, the MIC90 [24] was 0.5 µg/mL (≈ 1.19 µM) and the MIC [25] was ≤ 0.03 µg/mL. The MIC50 [25] was ≤ 0.03 µg/mL, the MIC90 [25] was 0.06 µg/mL (≈ 0.143 µM) and the MIC50 [26] was 4 µg/mL (≈ 9.51 µM). The MIC90 [26] was 4 µg/mL (≈ 9.51 µM), the MIC [27] was ≤ 0.015 µg/mL and the MIC50 [27] was ≤ 0.015 µg/mL. For the same compound, the MIC90 [27] was 0.5 µg/mL (≈ 1.19 µM), the MIC50 [28] was 0.03 µg/mL (≈ 0.0713 µM) and the MIC90 [28] was 0.06 µg/mL (≈ 0.143 µM). For the same compound, the MIC50 [29] was 1 µg/mL (≈ 2.38 µM), the MIC90 [29] was 16 µg/mL (≈ 38 µM) and the MIC50 [30] was 16 µg/mL (≈ 38 µM). The MIC90 [30] was > 32 µg/mL, the MIC50 [31] was 0.06 µg/mL (≈ 0.143 µM) and the MIC90 [31] was 0.12 µg/mL (≈ 0.285 µM). The MIC50 [32] was 0.03 µg/mL (≈ 0.0713 µM), the MIC90 [32] was 0.06 µg/mL (≈ 0.143 µM) and the MIC50 [33] was 0.06 µg/mL (≈ 0.143 µM). The MIC90 [33] was 0.25 µg/mL (≈ 0.595 µM), the MIC50 [34] was 0.12 µg/mL (≈ 0.285 µM) and the MIC90 [34] was 0.5 µg/mL (≈ 1.19 µM). The MIC50 [35] was 0.25 µg/mL (≈ 0.595 µM), the MIC90 [35] was 1 µg/mL (≈ 2.38 µM) and the MIC50 [36] was 0.5 µg/mL (≈ 1.19 µM). For the same compound, the MIC90 [36] was 8 µg/mL (≈ 19 µM), the MIC [37] was ≤ 0.03 µg/mL and the MIC50 [37] was ≤ 0.03 µg/mL. For the same compound, the MIC90 [37] was 0.12 µg/mL (≈ 0.285 µM), the “fT>MIC” value [38] was 35% and the “fT>MIC” value [39] was 35%. For the same compound, the “fT>MIC” value [40] was 35%.

— ChEMBL document CHEMBL1255496, “Pharmacokinetic-pharmacodynamic-model-guided doripenem dosing in critically ill patients” (2010)
